# Results published in patent US8859549B2, “Potassium channel modulators” (AbbVie, Inc., priority 2011, dated 2014).
# Molecular target: T1, KCNQ 2/3 channels (Homo sapiens, UniProt O43525+O43526)
# T1 construct: expressed in transfected cells; host or cells: HEK293
# Experiment: KCNQ 2/3 channel activation, thallium flux FLIPR assay (BTC-AM dye)
# Format: cell-based
# Settings: for Emax: HEK293, maximum response relative to the response of 10 μM retigabine (set at 100%), read-out: % MAX; for EC50: HEK293 cells stably expressing human KCNQ2 and KCNQ3 subunits, thallium-induced fluorescence, 4 min compound incubation
# Summary of the method: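 HEK293 cells stably expressing human KCNQ2/KCNQ3 were loaded with BTC-AM (3 μg/mL, 2 h, RT) and preincubated with compound for 4 min in pH 7.3 gluconate buffer containing 0.1 mM ouabain. Flux was triggered by 6 mM TlNO3/10 mM K2SO4 and read for 3 min; EC50 came from summed responses over basal, with maximum relative to 10 μM retigabine (100%).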
Structure (SMILES),Emax (HEK293 KCNQ2/KCNQ3 cells) [%],EC50 [nM],"% MAX (maximum response relative to the response of 10 μM retigabine (set at 100%), HEK293 KCNQ2/KCNQ3 cells) [%]"
"CC1CN(c2nn(NC(=O)Cc3cc(F)cc(F)c3)c(=O)c3ccccc23)CC(C)O1 (stereo not shown) [Example 60, 2-(3,5-difluorophenyl)-N-[4-(2,6-dimethylmorpholin-4-yl)-1-oxophthalazin-2(1H)-yl]acetamide]",105,474,
"CN(Cc1ccccc1)c1nn(NC(=O)CC2CC3CCC2C3)c(=O)c2ccccc12 (racemic) [Example 37, (±)-N-{4-[benzyl(methyl)amino]-1-oxophthalazin-2(1H)-yl}-2-[(exo)-bicyclo[2.2.1]hept-2-yl]acetamide]",160,42.3,
"C[C@@H]1CN(c2nn(NC(=O)CC(C)(C)c3ccccc3)c(=O)c3ccccc23)C[C@H](C)O1 [Example 89, N-{4-[(cis)-2,6-dimethylmorpholin-4-yl]-1-oxophthalazin-2(1H)-yl}-3-methyl-3-phenylbutanamide]",183,350,
"O=C(CC1CC2CCC1C2)Nn1nc(-c2ccnc(Cl)c2)c2ccccc2c1=O (racemic) [Example 29, (±)-2-[(exo)-bicyclo[2.2.1]hept-2-yl]-N-[4-(2-chloropyridin-4-yl)-1-oxophthalazin-2(1H)-yl]acetamide]",137,67.1,
"CS(=O)(=O)c1ccc(CC(=O)Nn2nc(Sc3ccccc3)c3ccccc3c2=O)cc1 [Example 181, 2-[4-(methylsulfonyl)phenyl]-N-[1-oxo-4-(phenylsulfanyl)phthalazin-2(1H)-yl]acetamide]",92.6,5180,
"CC(C)(C)OC(=O)c1nn(NC(=O)CC2CC3CCC2C3)c(=O)c2ccccc12 (racemic) [Example 94, (±)-tert-butyl 3-{[(exo)-bicyclo[2.2.1]hept-2-ylacetyl]amino}-4-oxo-3,4-dihydrophthalazine-1-carboxylate]",201,76.7,
"NC(=O)c1cc(-c2nn(NC(=O)CC3CC4CCC3C4)c(=O)c3ccccc23)ccn1 (racemic) [Example 72, (±)-4-(3-{[(exo)-bicyclo[2.2.1]hept-2-ylacetyl]amino}-4-oxo-3,4-dihydrophthalazin-1-yl)pyridine-2-carboxamide]",13.7,,
"CCOC(=O)c1nn(NC(=O)Cc2ccc(Cl)cc2)c(=O)c2ccccc12 [Example 63, ethyl 3-{[(4-chlorophenyl)acetyl]amino}-4-oxo-3,4-dihydrophthalazine-1-carboxylate]",64.8,862,
"O=C(CC1CCCCC1)Nn1nc(N2CCOCC2)c2ccccc2c1=O [Example 138, 2-cyclohexyl-N-[4-(morpholin-4-yl)-1-oxophthalazin-2(1H)-yl]acetamide]",153,3890,
"O=C(Cc1cccc(Oc2ccccc2)c1)Nn1nc(N2CCOCC2)c2ccccc2c1=O [Example 131, N-[4-(morpholin-4-yl)-1-oxophthalazin-2(1H)-yl]-2-(3-phenoxyphenyl)acetamide]",17.1,,
"Cc1ccc(S(=O)(=O)NCc2nn(NC(=O)Cc3ccc(Cl)cc3)c(=O)c3ccccc23)cc1 [Example 78, 2-(4-chlorophenyl)-N-[4-({[(4-methylphenyl)sulfonyl]amino}methyl)-1-oxophthalazin-2(1H)-yl]acetamide]",44.1,9490,
"O=C(CC1CC2CCC1C2)Nn1nc(C(O)c2ccccc2)c2ccccc2c1=O (racemic) [Example 102, (±)-2-[(exo)-bicyclo[2.2.1]hept-2-yl]-N-{4-[hydroxy(phenyl)methyl]-1-oxophthalazin-2(1H)-yl}acetamide]",212,894,
"O=C(Cc1ccc(Cl)cc1)Nn1nc(CNC(=O)OC2CCCC2)c2ccccc2c1=O [Example 187, cyclopentyl[(3-{[(4-chlorophenyl)acetyl]amino}-4-oxo-3,4-dihydrophthalazin-1-yl)methyl]carbamate]",32,,
"O=C(CC(F)(F)F)Nn1nc(N2CCOCC2)c2ccccc2c1=O [Example 136, 3,3,3-trifluoro-N-[4-(morpholin-4-yl)-1-oxophthalazin-2(1H)-yl]propanamide]",49.1,6230,
"O=C(CC12CC3CC(CC1C3)C2)Nn1nc(-c2ccc(C(F)(F)F)nc2)c2ccccc2c1=O [Example 211, 2-(hexahydro-2,5-methanopentalen-3a(1H)-yl)-N-{1-oxo-4-[6-(trifluoromethyl)pyridin-3-yl]phthalazin-2(1H)-yl}acetamide]",137,201,
"N#Cc1ccc(S(=O)(=O)c2nn(NC(=O)Cc3cc(F)cc(F)c3)c(=O)c3ccccc23)cc1 [Example 223, N-{4-[(4-cyanophenyl)sulfonyl]-1-oxophthalazin-2(1H)-yl}-2-(3,5-difluorophenyl)acetamide]",86.2,149,
"O=C(CC1CC2CCC1C2)Nn1nc(N2CCSCC2)c2ccccc2c1=O (racemic) [Example 93, (±)-2-[(exo)-bicyclo[2.2.1]hept-2-yl]-N-[1-oxo-4-(thiomorpholin-4-yl)phthalazin-2(1H)-yl]acetamide]",229,78.2,

Structure (SMILES),Emax (HEK293 KCNQ2/KCNQ3 cells) [%],EC50 [nM],"% MAX (maximum response relative to the response of 10 μM retigabine (set at 100%), HEK293 KCNQ2/KCNQ3 cells) [%]"
"CC(C)(CC(=O)Nn1nc(S(=O)(=O)c2ccccc2)c2ccccc2c1=O)c1ccccc1 [Example 194, 3-methyl-N-[1-oxo-4-(phenylsulfonyl)phthalazin-2(1H)-yl]-3-phenylbutanamide]",63.4,1780,
"O=C(Cc1c(Cl)cccc1Cl)Nn1nc(N2CCOCC2)c2ccccc2c1=O [Example 178, 2-(2,6-dichlorophenyl)-N-[4-(morpholin-4-yl)-1-oxophthalazin-2(1H)-yl]acetamide]",-1.83,,
"Cc1ccc(CC(=O)Nn2nc(N3CCOCC3)c3ccccc3c2=O)cc1 [Example 141, 2-(4-methylphenyl)-N-[4-(morpholin-4-yl)-1-oxophthalazin-2(1H)-yl]acetamide]",72,5240,
"O=C(CC1CC2CCC1C2)Nn1nc(Cc2ccc(Cl)nc2)c2ccccc2c1=O (racemic) [Example 30, (±)-2-[(exo)-bicyclo[2.2.1]hept-2-yl]-N-{4-[(6-chloropyridin-3-yl)methyl]-1-oxophthalazin-2(1H)-yl}acetamide]",122,58.4,
"O=C(CC12CC3CC(CC1C3)C2)Nn1nc(N2CCOCC2)c2ccccc2c1=O [Example 210, 2-(hexahydro-2,5-methanopentalen-3a(1H)-yl)-N-[4-(morpholin-4-yl)-1-oxophthalazin-2(1H)-yl]acetamide]",154,164,
"CC1CN(c2nn(NC(=O)CC3CC4CCC3C4)c(=O)c3ccccc23)CC(C)O1 (racemic) [Example 64, (±)-2-[(exo)-bicyclo[2.2.1]hept-2-yl]-N-[4-(2,6-dimethylmorpholin-4-yl)-1-oxophthalazin-2(1H)-yl]acetamide]",,90.9,144
"COc1cccc(CC(=O)Nn2nc(N3CCOCC3)c3ccccc3c2=O)c1OC [Example 169, 2-(2,3-dimethoxyphenyl)-N-[4-(morpholin-4-yl)-1-oxophthalazin-2(1H)-yl]acetamide]",23.6,,
"O=C(CC1CCCC1)Nn1nc(N2CCOCC2)c2ccccc2c1=O [Example 137, 2-cyclopentyl-N-[4-(morpholin-4-yl)-1-oxophthalazin-2(1H)-yl]acetamide]",135,7680,
"O=C(Cc1cc(F)cc(F)c1)Nn1nc(Sc2ccccc2)c2ccccc2c1=O [Example 57, 2-(3,5-difluorophenyl)-N-[1-oxo-4-(phenylsulfanyl)phthalazin-2(1H)-yl]acetamide]",116,38.1,
"O=C(CC1CC2CCC1C2)Nn1nc(N2CCOCC2)c2ccccc2c1=O (racemic) [Example 3, (±)-2-[(exo)-bicyclo[2.2.1]hept-2-yl]-N-[4-(morpholin-4-yl)-1-oxophthalazin-2(1H)-yl]acetamide]",142,331,
"O=C(CC1CC2CCC1C2)Nn1nc(S(=O)(=O)c2ccc(Br)cc2)c2ccccc2c1=O (racemic) [Example 204, (±)-2-[(exo)-bicyclo[2.2.1]hept-2-yl]-N-{4-[(4-bromophenyl)sulfonyl]-1-oxophthalazin-2(1H)-yl}acetamide]",164,24,
"O=C(CC1CC2CCC1C2)Nn1nc(CNC(=O)OCc2ccccc2)c2ccccc2c1=O (racemic) [Example 96, (±)-benzyl[(3-{[(exo)-bicyclo[2.2.1]hept-2-ylacetyl]amino}-4-oxo-3,4-dihydrophthalazin-1-yl)methyl]carbamate]",79.4,315,
"CN(Cc1ccccc1)c1nn(NC(=O)Cc2cc(F)cc(F)c2)c(=O)c2ccccc12 [Example 53, N-{4-[benzyl(methyl)amino]-1-oxophthalazin-2(1H)-yl}-2-(3,5-difluorophenyl)acetamide]",147,132,
"O=C(Cc1ccc(Br)cc1)Nn1nc(S(=O)(=O)c2ccccc2)c2ccccc2c1=O [Example 206, 2-(4-bromophenyl)-N-[1-oxo-4-(phenylsulfonyl)phthalazin-2(1H)-yl]acetamide]",99.3,69.3,
"CCC(C)(C)OC(=O)NCc1nn(NC(=O)Cc2ccc(Cl)cc2)c(=O)c2ccccc12 [Example 182, 2-methylbutan-2-yl[(3-{[(4-chlorophenyl)acetyl]amino}-4-oxo-3,4-dihydrophthalazin-1-yl)methyl]carbamate]",63.8,1320,
"N#Cc1ccc(S(=O)(=O)c2nn(NC(=O)C[C@H]3C[C@@H]4CC[C@H]3C4)c(=O)c3ccccc23)cc1 (racemic) [Example 219, (±)-2-[(exo)-bicyclo[2.2.1]hept-2-yl]-N-{4-[(4-cyanophenyl)sulfonyl]-1-oxophthalazin-2(1H)-yl}acetamide]",145,14.6,
